In patent US20180085330A1, “Dose Adjustment” (AbbVie Inc., priority 2016, published 2018):
Where two headings read alike, the source gives them in different places.

How the values were obtained:
[1] = Drug interaction studies: pharmacokinetic parameters of coadministered drug in the presence of glecaprevir/pibrentasvir; format: in vivo, human
Description: Drug interaction studies were performed with glecaprevir/pibrentasvir and other drugs that are likely to be coadministered and with drugs commonly used as probes for pharmacokinetic interactions.

[2] = cited from earlier work
[3] = dextromethorphan hydrobromide 30 mg single dose, GLE/PIB 300/120 mg once daily
[4] = raltegravir 400 mg twice daily, GLE/PIB 300/120 mg once daily
[5] = simvastatin 5 mg once daily, GLE/PIB 300/120 mg once daily
[6] = lovastatin 10 mg once daily, GLE/PIB 300/120 mg once daily
[7] = rilpivirine 25 mg once daily, GLE/PIB 300/120 mg once daily
[8] = EE/Levonorgestrel 20 μg/100 μg once daily, GLE/PIB 300/120 mg once daily
[9] = EE/Norgestimate 35 μg/250 μg once daily, GLE/PIB 300/120 mg once daily
[10] = sofosbuvir 400 mg once daily, GLE/PIB 400/120 mg once daily
[11] = dabigatran etexilate 150 mg single dose, GLE/PIB 300/120 mg once daily
[12] = valsartan 80 mg single dose, GLE/PIB 300/120 mg once daily
[13] = EVG/COBI/FTC/TAF 150/150/200/10 mg once daily, GLE/PIB 300/120 mg once daily
[14] = pravastatin 10 mg once daily, GLE/PIB 400/120 mg once daily
[15] = pravastatin coadministered with clarithromycin
[16] = omeprazole 20 mg single dose, GLE/PIB 300/120 mg once daily
[17] = losartan 50 mg single dose, GLE/PIB 300/120 mg once daily
[18] = tacrolimus 1 mg single dose, GLE/PIB 300/120 mg once daily
[19] = rosuvastatin 5 mg once daily, GLE/PIB 400/120 mg once daily
[20] = rosuvastatin coadministered with lopinavir/ritonavir
[21] = EFV/FTC/TDF 300/200/300 mg once daily, GLE/PIB 300/120 mg once daily

COc1ccc2c(c1)[C@]13CCCC[C@@H]1[C@H](C2)N(C)CC3 [Dextromethorphan]
Central Value Ratio (90% CI) AUC [1, 3]: 0.75
Central Value Ratio (90% CI) Cmax [1, 3]: 0.70

Cc1nnc(C(=O)NC(C)(C)c2nc(C(=O)NCc3ccc(F)cc3)c(O)c(=O)n2C)o1 [Raltegravir]
Central Value Ratio (90% CI) AUC [1, 4]: 1.47
Central Value Ratio (90% CI) Cmax [1, 4]: 1.34
Central Value Ratio (90% CI) Cmin [1, 4]: 2.64

CCC(C)(C)C(=O)O[C@H]1C[C@@H](C)C=C2C=C[C@H](C)[C@H](CC[C@@H](O)C[C@@H](O)CC(=O)O)[C@H]21 [Simvastatin acid]
Central Value Ratio (90% CI) AUC [1, 5]: 4.48
Central Value Ratio (90% CI) Cmax [1, 5]: 10.7

CC[C@H](C)C(=O)O[C@H]1C[C@@H](C)C=C2C=C[C@H](C)[C@H](CC[C@@H]3C[C@@H](O)CC(=O)O3)[C@H]21 [lovastatin]
Central Value Ratio (90% CI) AUC [1, 6]: 1.70

Cc1cc(/C=C/C#N)cc(C)c1Nc1ccnc(Nc2ccc(C#N)cc2)n1 [Rilpivirine]
Central Value Ratio (90% CI) AUC [1, 7]: 1.84
Central Value Ratio (90% CI) Cmax [1, 7]: 2.05
Central Value Ratio (90% CI) Cmin [1, 7]: 1.77

C#C[C@]1(O)CC[C@H]2[C@@H]3CCc4cc(O)ccc4[C@H]3CC[C@@]21C [Ethinyl estradiol (EE), Ethinyl estradiol]
Central Value Ratio (90% CI) AUC [1, 8]: 1.40
Central Value Ratio (90% CI) Cmax [1, 8]: 1.30
Central Value Ratio (90% CI) Cmin [1, 8]: 1.56
Central Value Ratio (90% CI) AUC [1, 9]: 1.28
Central Value Ratio (90% CI) Cmax [1, 9]: 1.31
Central Value Ratio (90% CI) Cmin [1, 9]: 1.38

CC(C)OC(=O)[C@H](C)N[P@](=O)(OC[C@H]1O[C@@H](n2ccc(=O)[nH]c2=O)[C@](C)(F)[C@@H]1O)Oc1ccccc1 [Sofosbuvir]
Central Value Ratio (90% CI) AUC [1, 10]: 2.25
Central Value Ratio (90% CI) Cmax [1, 10]: 1.66

[H]/N=C(/N)c1ccc(NCc2nc3cc(C(=O)N(CCC(=O)O)c4ccccn4)ccc3n2C)cc1 [dabigatran]
Central Value Ratio (90% CI) AUC [1, 11]: 2.38
Central Value Ratio (90% CI) Cmax [1, 11]: 2.05

CCCCC(=O)N(Cc1ccc(-c2ccccc2-c2nnn[nH]2)cc1)[C@H](C(=O)O)C(C)C [Valsartan]
Central Value Ratio (90% CI) AUC [1, 12]: 1.31
Central Value Ratio (90% CI) Cmax [1, 12]: 1.36

Nc1nc(NC2CC2)c2ncn([C@H]3C=C[C@@H](CO)C3)c2n1 [Abacavir]
Central Value Ratio (90% CI) Cmin ([1]; ABC/DTG/3TC 600/50/300 mg once daily, GLE/PIB 300/120 mg once daily): 1.31

COc1cc2c(cc1Cc1cccc(Cl)c1F)c(=O)c(C(=O)O)cn2[C@H](CO)C(C)C [Elvitegravir]
Central Value Ratio (90% CI) AUC [1, 13]: 1.47
Central Value Ratio (90% CI) Cmax [1, 13]: 1.36
Central Value Ratio (90% CI) Cmin [1, 13]: 1.71

CC[C@H](C)C(=O)O[C@H]1C[C@H](O)C=C2C=C[C@H](C)[C@H](CC[C@@H](O)C[C@@H](O)CC(=O)O)[C@H]21 [pravastatin]
Central Value Ratio (90% CI) AUC [1, 14]: 2.30
Central Value Ratio (90% CI) Cmax [1, 14]: 2.23
AUC increase [2, 15]: 2.3 fold
Cmax increase [2, 15]: 2.1 fold

COc1ccc2[nH]c([S+]([O-])Cc3ncc(C)c(OC)c3C)nc2c1 (stereo not shown) [Omeprazole]
Central Value Ratio (90% CI) AUC [1, 16]: 0.79
Central Value Ratio (90% CI) Cmax [1, 16]: 0.57

CCCCc1nc(Cl)c(CO)n1Cc1ccc(-c2ccccc2-c2nn[nH]n2)cc1 [Losartan]
Central Value Ratio (90% CI) AUC [1, 17]: 1.56
Central Value Ratio (90% CI) Cmax [1, 17]: 2.51

C#C[C@]1(O)CC[C@H]2[C@@H]3CCC4=CC(=NO)CC[C@@H]4[C@H]3CC[C@@]21CC (mixture of isomers) [Norgestromin]
Central Value Ratio (90% CI) AUC [1, 9]: 1.44
Central Value Ratio (90% CI) Cmin [1, 9]: 1.45

C=CC[C@@H]1/C=C(\C)C[C@H](C)C[C@H](OC)[C@H]2O[C@@](O)(C(=O)C(=O)N3CCCC[C@H]3C(=O)O[C@H](/C(C)=C/[C@@H]3CC[C@@H](O)[C@H](OC)C3)[C@H](C)[C@@H](O)CC1=O)[C@H](C)C[C@@H]2OC [Tacrolimus]
Central Value Ratio (90% CI) AUC [1, 18]: 1.45
Central Value Ratio (90% CI) Cmax [1, 18]: 1.50

Cc1ncc2n1-c1ccc(Cl)cc1C(c1ccccc1F)=NC2 [Midazolam]
Central Value Ratio (90% CI) AUC ([1]; midazolam 1 mg single dose, GLE/PIB 300/120 mg once dally): 1.27

C[C@@]1(F)[C@H](O)[C@@H](CO)O[C@H]1n1ccc(=O)[nH]c1=O [GS-331007]
Central Value Ratio (90% CI) Cmin [1, 10]: 1.85

CC(C)c1nc(N(C)S(C)(=O)=O)nc(-c2ccc(F)cc2)c1/C=C/[C@@H](O)C[C@@H](O)CC(=O)O [rosuvastatin]
Central Value Ratio (90% CI) AUC [1, 19]: 2.15
Central Value Ratio (90% CI) Cmax [1, 19]: 5.62
AUC increase [2, 20]: 2.1 fold
Cmax increase [2, 20]: 5 fold

Cn1c(=O)c2c(ncn2C)n(C)c1=O [Caffeine]
Central Value Ratio (90% CI) AUC ([1]; caffeine 100 mg single dose, GLE/PIB 300/120 mg once daily): 1.35

CCC(C)(C)C(=O)O[C@H]1C[C@@H](C)C=C2C=C[C@H](C)[C@H](CC[C@@H]3C[C@@H](O)CC(=O)O3)[C@H]21 [simvastatin]
Central Value Ratio (90% CI) AUC [1, 5]: 2.32
Central Value Ratio (90% CI) Cmax [1, 5]: 1.99

C#CC1(O)CC[C@H]2[C@@H]3CCC4=CC(=O)CC[C@@H]4[C@H]3CC[C@@]21CC (mixture of isomers) [Norgestrel]
Central Value Ratio (90% CI) AUC [1, 8]: 1.68
Central Value Ratio (90% CI) Cmax [1, 8]: 1.37
Central Value Ratio (90% CI) Cmin [1, 8]: 1.77
Central Value Ratio (90% CI) AUC [1, 9]: 1.63
Central Value Ratio (90% CI) Cmax [1, 9]: 1.54
Central Value Ratio (90% CI) Cmin [1, 9]: 1.75

CC[C@H](C)C(=O)O[C@H]1C[C@@H](C)C=C2C=C[C@H](C)[C@H](CC[C@@H](O)C[C@@H](O)CC(=O)O)[C@H]21 [Lovastatin acid]
Central Value Ratio (90% CI) AUC [1, 6]: 4.10
Central Value Ratio (90% CI) Cmax [1, 6]: 5.73

C[C@H](Cn1cnc2c(N)ncnc21)OCP(=O)(O)O [Tenofovir]
Central Value Ratio (90% CI) AUC [1, 21]: 1.29
Central Value Ratio (90% CI) Cmin [1, 21]: 1.38
